Results on six compounds are retold here after patent US20030129168A1, “Expression of proteins for treating asthma via ligand mediated activation of their encoding genes” (ARIAD Gene Therapeutics, Inc., priority 1996, published 2003).

Like-named read-outs stand apart in the source and are kept apart here.

The subject of data set [1] is ZFHD1-FKBPx3 and FKBPx3-VP16 or FKBPx3-p65. The experiment in a line: Dimerizer-dependent transcriptional activation (SEAP) in transiently transfected 293 cells. The class given is cell-based. The protocol: 293 cells were grown in D-MEM (Gibco BRL) supplemented with 10% Bovine Calf Serum. Cells in 35 mm dishes (2.5×10^5 cells/dish) were transiently transfected with use of calcium phosphate precipitation (Ausubel et. al., 1994). Each dish received 375 ng pZHWTx8SVSEAP; 12ng pCGNNZFHD1-FKBPx3 and 25ng pCGNNFKBPx3-VP16 or pCGNNFKBPx3-p65. Following transfection, 2 ml fresh media was added and supplemented with FK1012 to the desired concentration. After a 24 hour incubation […] aliquot of media was removed and assayed for SEAP activity as described (Spencer et. al., 1993).
An analgous experiment was conducted using a wholly synthetic dimerizer, AP1510, in place of FK1012. Like FK1012, AP1510 is a divalent FKBP-binder and is capable of dimerizing chimeric proteins which contain FKBP domains. In this experiment, 293 cells were grown in DMEM supplemented with 10% Bovine Calf Serum. Cells in 10 cm dishes were transiently transfected by calcium phosphate precipitation (Natesan and Gilman, 1995, Mol. Cell Biol, 15, 5975-5982). Each plate received 1 μg of pZHWTx8SVSEAP reporter, 50 ng pCGNNZFHD1-FKBP3×3, 50 ng pCGNNF3p65 or pCGNNF3VP16. Following transfection, 2 ml fresh media was added and supplemented with AP1510 to the desired concentration. After 24 hrs, 100 μl of the media was assayed for SEAP activity as described (Spencer et al, 1993).

Data set [2] in a line: Solubility of AP1510 in culture medium. The class given is physicochemical. As to conditions: aqueous buffer, kinetic from ethanol stock; serial dilution in (aqueous) culture medium; read-out: highest concentration ensuring complete solubility. The protocol: In the latter case it is recommended that the highest concentration not exceed 5 uM, to ensure complete solubility in the (aqueous) medium. […]

For data set [3], the system named is FKBP12-containing fusion proteins. In words: Gene regulation applications of dimerizer (SEAP or hGH reporter systems). The data set is classed as cell-based. The conditions noted are these: for transcription activation with stably integrated constructs: cells in which the transcription factor and reporter gene constructs are all stably integrated. The protocol: After overnight incubation (or longer), assay for target gene expression.
Secreted alkaline phosphatase activity can be easily measured from the supernatant of appropriately transfected cells using fluorescence-(see (10)), or chemiluminescence-(Tropix, Bedford, Mass.) based assays. Samples to be tested should first be incubated at 65° C. for 1 hour to inactivate endogenous alkaline phosphatase activity.

The subject of data set [4] is cells. The experiment in a line: Toxicity in cell culture. The data set is classed as cell-based.
Data set [5] is described as follows: Immunosuppressive activity.
Data set [6] concerns myristoylated chimeric CD3/FKBP12 (MZF3E) receptor. In words: FK1012 activation of myristoylated chimeric CD3/FKBP12 (MZF3E) receptor, NFAT SEAP reporter in Jurkat T cells. The data set is classed as cell-based, human. From the text: In an illustrative case, this was accomplished by creating an intracellular receptor comprised of a small fragment of Src sufficient for posttranslational myristoylation (M), the cytoplasmic tail of zeta (Z; a component of the […] was also used), three consecutive FKBP12s (F3) and a flu epitope tag (E). […] The promoter of the SEAP reporter gene was constructed to be transcriptionally activated by nuclear factor of activated T cells (NFAT), which is assembled in the nucleus following TCR-signaling.
Specifically, 5 μg of the eukaryotic expression vector, pBJ5, containing a myristoylated chimeric receptor was co-transfected with 4 μg NFAT-SX. MZE, MZF1E, MZF2E and MZF3E contain 0, 1, 2, or 3 copies of FKBP12, respectively, downstream of a myristoylated CD3 cytoplasmic domain (see FIG. 2 of PCT/US94/01617). As a control, 5 μg of pBJ5 was used in a parallel transfection. After 24 hours, aliquots of each transfection containing approximately 10^5 cells were incubated with log dilutions of the drug, FK1012B, as indicated. As a positive control and to control for transfection efficiency, ionomycin (1 μm) and PMA (25 ng/ml) were added to aliquots from each transfection. After an additional 12 hour incubation, the supernatants were assayed for alkaline phosphatase activity and these activities were expressed relative to that of the positive control samples. […] Compare FIGS. 7 and 8 of PCT/US94/01617.

For the next data set, the system named is zeta-chain. In words: In vitro kinase assay after immunoprecipitation, Jurkat cells stably transfected with MZF3E. The data set is classed as cell-based, human.
In another data set the test system is MZF3Eflu and MZF3Eflag. The experiment in a line: Coimmunoprecipitation of epitope-tagged chimeras in Jurkat T cells (in vivo FK1012-induced protein dimerization). The data set is classed as cell-based, human. The protocol: The following experiments confirmed that intracellular aggregation of the MZF3E receptor is indeed induced by the FK1012. The influenza haemagglutinin epitope-tag (flu) of the MZF3E-construct was exchanged with a different epitope-tag (flag-M2). The closely related chimeras, MZF3Eflu and MZF3Eflag, were coexpressed in Jurkat T cells. Immunoprecipitation experiments using anti-Flag-antibodies coupled to agarose beads were performed after the cells were treated with FK1012A. […] In absence of FK1012A, no coimmunoprecipitation of MZF3Eflu is observed. […] This reflects the requirement for aggregation observed with both the endogenous T cell receptor and our artificial receptor MZF3E.

Data set [7] concerns ZFHD1-FKBPx3 and FRAP-p65. In words: Rapamycin-dependent hGH expression in nu/nu mice implanted with transfected cells. As to conditions: rapamycin i.v. 10-10,000 μg/kg, serum 17 hours after administration. The class given is in vivo. The protocol:
(§1) Using the approach described in Example 7, constructs were prepared encoding the ZFHD1-FKBPx3 fusion protein, a second fusion protein containing the FKBP:rapaymcin binding (“FRB”) region of FRAP linked to the p6^5 activation domain, and a reporter cassette containing a gene encoding human growth hormone linked to multiple ZFHD1 binding sites. The natural product, rapamycin, forms a ternary complex with FKBP12 and FRAP. Similarly, rapamycin is capable of binding to one or more of the FKBP domains and FRAP FRB domains of the fusion proteins.
2×10^6 cells from the transfected […] culture were administered to nu/nu mice by intramuscular injection. Following cell implantation, rapamycin was administered i.v. over a range of doses (from 10-10,000 μg/kg). Serum samples were collected from the mice 17 hours after rapamycin administration. Control groups consisted of mice that received no cells but 1.0 mg/kg rapamycin (i.v.) as well as mice that received the cells but no rapamycin.

Data set [8] relates to ZFHD1-FKBPx3 and FRAP-p65. The experiment in a line: Rapamycin-dependent hGH expression in transfected HT1080 cells in culture. The class given is cell-based. The conditions noted are these: HT1080 cells in cell culture. Here is the method:
as §1

For data set [9], the target named is T1, FKBP12 (Homo sapiens, UniProt P62942). In words: FK1012 binding affinity and stoichiometry. As to conditions: linker positioned in the calcineurin binding domain of FK506.
Data set [10] relates to calcineurin-mediated TCR signaling. As to conditions: cited from earlier work.
In data set [11] the test system is Jurkat cells stably transfected with MZF3E. In words: Protein-tyrosine phosphorylation in whole cell lysates (alpha-phosphotyrosine antibodies). The class given is cell-based, human. As to conditions: whole cell lysates at varying times after stimulation. An excerpt:
The intracellular domains of the TCR, CD3 and zeta-chains interact with cytoplasmic protein tyrosine kinases following antigen stimulation. Specific members of the Src family (lck and/or fyn) phosphorylate one or more tyrosine residues of activation motifs within these intracellular domains (tyrosine activation motif, TAM). The tyrosine kinase ZAP-70 is recruited (via its two SH2 domains) to the tyrosine phosphorylated T-cell-receptor, activated, and is likely to be involved in the further downstream activation of phospholipase C. […] Tyrosine phosphorylation after treatment of cells with either anti-CD3 MAb or FK1012 was detected using monoclonal alpha-phosphotyrosine antibodies. Whole cell lysates were analysed at varying times after stimulation. […] The pattern consisted of a major band of 70 kDa, probably ZAP-70, and minor bands of 120 kDa, 62 kDa, 55 kDa and 42 kDa.

Data set [12] concerns the target T1, FKBP12. As to conditions: 2:1 stoichiometry, cited from earlier work.
Data set [13] relates to cells. As to conditions: in cell culture; cited from earlier work.
For data set [14] the following is noted: in vivo.

T1 sequence (P62942 whole entry, the tested form may be a part): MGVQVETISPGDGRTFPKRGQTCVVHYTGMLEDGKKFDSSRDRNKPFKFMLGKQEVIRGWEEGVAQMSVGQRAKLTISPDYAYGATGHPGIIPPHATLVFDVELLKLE

As for `CCC(C)(C)C(=O)C(=O)N1CCCC[C@H]1C(=O)O[C@H](CCc1ccc(OC)c(OC)c1)c1cccc(OCC(=O)NCCNC(=O)COc2cccc([C@@H](CCc3ccc(OC)c(OC)c3)OC(=O)[C@@H]3CCCCN3C(=O)C(=O)C(C)(C)CC)c2)c1` [AP1510], in data set [1] (24 hrs), the dimerizer-dependent transcriptional activation result is recorded as “supports synthetic dimerizer-dependent transcriptional activation”. The solubility in data set [2] was ≤ 5 µM. The “transcription activation with stably integrated constructs” value in data set [3] is on record as “activates transcription efficiently”. Besides, in data set [3] (gene regulation applications), the “concentration at which expression becomes detectable” value is given as “approximately 10 nM”; the “concentration at which expression peaks” value was “approximately 100 nM”; the “transcription activation compared with FK1012” value is “activates transcription at lower concentrations and to a higher level than PK1012”. In the data set with cells [4], the toxicity to cells result was “non-toxic to cells”. Also, the immunosuppressive activity entry in [5] is listed as “no immunosuppressive activity”.

With `CO[C@H]1C[C@@H](C)C/C(C)=C/[C@@H](CCOC(=O)NCc2ccccc2)C(=O)C[C@H](O)[C@@H](C)[C@@H](/C(C)=C/[C@@H]2CC[C@@H](O)[C@H](OC)C2)OC(=O)[C@@H]2CCCCN2C(=O)C(=O)[C@]2(O)O[C@H]1[C@@H](OC)C[C@H]2C` [FK506-M], in the data set on cells [4], the toxicity to cells entry is “nontoxic”. Moreover, in [6], the “termination of FK1012-induced signaling” value is listed as “can be terminated by a deaggregation process”.

`CO[C@H]1C[C@@H](C)C/C(C)=C/[C@@H](CCOC(=O)NCc2ccc(CNC(=O)OCC[C@@H]3/C=C(\C)C[C@H](C)C[C@H](OC)[C@H]4O[C@@](O)(C(=O)C(=O)N5CCCC[C@H]5C(=O)O[C@H](/C(C)=C/[C@@H]5CC[C@@H](O)[C@H](OC)C5)[C@H](C)[C@@H](O)CC3=O)[C@H](C)C[C@@H]4OC)cc2)C(=O)C[C@H](O)[C@@H](C)[C@@H](/C(C)=C/[C@@H]2CC[C@@H](O)[C@H](OC)C2)OC(=O)[C@@H]2CCCCN2C(=O)C(=O)[C@]2(O)O[C@H]1[C@@H](OC)C[C@H]2C` [FK1012]: the “recruitment of kinase activity to the zeta-chain” value in the data set with zeta-chain is given as “resulted in the recruitment of kinase activity to the zeta-chain”. Also, the “dimerization of FKBP monomer constructs MZF1Eflu and MZF1Eflag” value with MZF3Eflu and MZF3Eflag is on record as “also dimerized by FK1012A”. Also, in the data set with MZF3Eflu and MZF3Eflag (FK1012A 1 μM, anti-Flag agarose beads), the “coimmunoprecipitation of MZF3Eflu with MZF3Eflag” value is on record as “is coimmunoprecipitated with MZF^3Eflag”.

Regarding `CO[C@H]1C[C@@H]2CC[C@@H](C)[C@@](O)(O2)C(=O)C(=O)N2CCCC[C@H]2C(=O)O[C@H]([C@H](C)C[C@@H]2CC[C@@H](O)[C@H](OC)C2)CC(=O)[C@H](C)/C=C(\C)[C@@H](O)[C@@H](OC)C(=O)[C@H](C)C[C@H](C)/C=C/C=C/C=C/1C` [rapamycin], in data set [7], the “expression of hGH (circulating hGH)” value is on record as “Dose-responsive expression of hGH was observed”. Besides, the “rapamycin-dependent expression of the hGH gene” value in data set [8] was “support rapamycin-dependent expression of the hGH gene in cell culture”.

FK1012: on FKBP12 [9], the FKBP12 binding entry is reported as “leaving FKBP12 binding unaffected”. Besides, the “concentration of peak transcriptional activation” value in data set [1] (24 hour incubation) was 100 nM. Further, in [3], the “transcription activation with stably integrated constructs” value is on record as “poor”. Also, in data set [10], the “inhibition of calcineurin-mediated TCR signaling / signalling pathways” value is “not inhibit calcineurin-mediated TCR signaling”. Besides, the “pattern of tyrosine-phosphorylated proteins” value in [11] is reported as “A similar pattern of tyrosine-phosphorylated proteins was observed”. Further, the Kd on FKBP12 [12] (first binding event, read-out: Kd(1)) was 0.1 nM; on FKBP12 [12] (second binding event, read-out: Kd(2)) it was 0.8 nM. For the same compound, the immunosuppressive activity entry in data set [5] was “abolishes immunosuppressive activity”. The EC50 in [6] (MZF3E in human (Jurkat) T cells, NFAT-driven SEAP reporter, read-out: EC50, secretion of alkaline phosphatase (SEAP)) was 50 nM. The “toxic (not toxic up to)” value in the data set on cells [13] is recorded as > 0.1 mM.

On to hGH: human growth hormone, for which, in [14], the hGH clearance half-life result is given as “less than 2 minutes” and the “time to undetectable hGH levels” value is ≤ 30 min.
